According to article PMC3516572, “MiniCD4 Microbicide Prevents HIV Infection of Human Mucosal Explants and Vaginal Transmission of SHIV162P3 in Cynomolgus Macaques” (PLoS Pathogens, 2012):

How the values were obtained:
SHIV162P3 = conditions: cited from earlier work
From the text: The use of effective therapeutic drugs, such as tenofovir and more recently dapivirine tested in phase III trial, targeting post-entry events in the viral replication cycle (reverse transcription, integration and viral maturation) remains attractive, however the impact of their dual use in prevention and therapy on the potential induction of resistance evolution remains controversial. In contrast drugs that target the initial steps of viral attachment to CD4 and one of two co-receptors (CCR5 or CXCR4) triggering viral fusion with susceptible targets cells (entry inhibitors) are not widel ...

penile tissue explants = experiment: MTT viability assay on penile tissue explants; format: cell-based, human; conditions: 24 h at 37°C, then MTT 2 h; M48U1 ten-fold dilutions, highest concentrations tested; nonoxynol-9 at 500 ng/mL; two independent experiments in triplicates
From the text: Cervical tissue was obtained from patients undergoing planned therapeutic hysterectomy at St. George's Hospital in London, United Kingdom. Surgically resected specimens of colorectal tissue were collected at St. George's Hospital, London, United Kingdom. Penile tissue (glans) was obtained from individuals undergoing gender reassignment surgery at Charing Cross Hospital. All tissues were collected after signed informed consent was received from all patients and under protocols approved by the Local Research Ethics Committee (National Research Ethic Service NHS). On arrival in the laboratory, resected tissue was cut into 2–3 mm^3 explants comprising both epithelial and stromal tissue or muscularis mucosae, depending on the tissue, as described previously, [22].
Penile tissues and PM-1 T cells were incubated in complete RPMI medium supplemented with ten-fold dilutions of M48U1 for 24 h at 37°C. Nonoxynol-9 microbicide (tested at 500 ng/mL) was employed as cytotoxic reference. […] For tissue, after releasing the formazan in ethanol overnight, cytotoxicity was determined by measuring the optical density of the purple formazan product at 570–690 nm using Synergy HT multi-detection microplate reader. For PM-1 cells, the absorption of the formazan product was determined after lysis of the cells.

PM-1 T cells = experiment: MTT viability assay on PM-1 T cells; format: cell-based; conditions: 24 h at 37°C, then MTT 2 h; M48U1 ten-fold dilutions, highest concentrations tested; nonoxynol-9 at 500 ng/mL; two independent experiments in triplicates
Method: Penile tissues and PM-1 T cells were incubated in complete RPMI medium supplemented with ten-fold dilutions of M48U1 for 24 h at 37°C. Nonoxynol-9 microbicide (tested at 500 ng/mL) was employed as cytotoxic reference. The compounds were removed and the tissue explants and cells were incubated for 2 h in medium containing 500 µg/mL of 3-(4,5-dimethylthiazol-2-yl)-2,5-diphenyltetrazolium bromide (MTT). For tissue, after releasing the formazan in ethanol overnight, cytotoxicity was determined by measuring the optical density of the purple formazan product at 570–690 nm using Synergy HT multi-detection microplate reader. For PM-1 cells, the absorption of the formazan product was determined after lysis of the cells.

SMILES	Protection of NHP from vaginal challenge with SHIV162P3 (SHIV162P3)	Cytotoxicity (MTT) in penile tissue (penile tissue explants)	Cytotoxicity (MTT) in PM-1 T-cell line (PM-1 T cells)
COc1ccnc2[nH]cc(C(=O)C(=O)N3CCN(C(=O)c4ccccc4)C[C@H]3C)c12 [BMS-378806]	could protect NHP		
CCCCCCCCCc1ccc(OCCOCCOCCOCCOCCOCCOCCOCCOCCO)cc1 [nonoxynol-9]		significant toxicity	significant toxicity
